Reference: article PMC9133015 (Nature Communications, 2022)
Where “and” joins values, the source holds several entries; their conditions need not be identical. Equal values may be shown once.

How the values were obtained:
DU145 xenograft = assay: In vivo antitumor activity, DU145 xenograft mouse model; design: species or system BALB/c nude mice; details: for Tumor volume (Fig. 7a): in cm³ (unit assumed)
PC-3 cells = assay: Migration assay (transwell); type: cell-based, human; details: for Cell migration (cell number): PC-3, replicates
DU145 cells = assay: Migration assay (transwell); type: cell-based, human; details: for Cell migration (cell number): replicates
22Rv1 cells [1] = assay: Migration assay (transwell); type: cell-based, human; details: for Cell migration (cell number): replicates
22Rv1 cells [2] = assay: Anti-proliferation activity assay (CCK8, 72 h); type: cell-based, human; details: 22Rv1; for Relative proliferation rate (%) / optical density: replicates
[3] = YK-2-69 (100 mg/kg), Day 37, individual mice, 100 mg/kg
[4] = YK-2-69 (100 mg/kg), Day 39, individual mice, 100 mg/kg
[5] = YK-2-69 (100 mg/kg), Day 41, individual mice, 100 mg/kg
[6] = YK-2-69 (100 mg/kg), Day 43, individual mice, 100 mg/kg
[7] = YK-2-69 (100 mg/kg), Day 45, individual mice, 100 mg/kg
[8] = YK-2-69 (100 mg/kg), Day 49, individual mice, 100 mg/kg
[9] = YK-2-69 (200 mg/kg), Day 1, individual mice, 200 mg/kg
[10] = YK-2-69 (200 mg/kg), Day 5, individual mice, 200 mg/kg

CCN1CCN(C(=O)c2ccc(Nc3ncc(F)c(-c4ccc5nc(N(C)C)sc5c4)n3)nc2)CC1 [YK-2-69]
Tumor weight (Fig. 7c) (DU145 xenograft; Low dose, individual mice, in g (unit assumed)): 1.34 and 1.32 and 1.29 and 1.36 and 1.47 and 1.24 and 1.68 and 1.73 and 1.54 and 1.49
Body weight (Fig. 7b) (DU145 xenograft; [3]): 26.5 and 24.2 and 25.7 and 25.5 (2×) and 24.9 and 24.6 and 25.2 and 25.6 and 26.6
Tumor volume (Fig. 7a) (DU145 xenograft; [3]): 0.9849 and 0.8117 and 1.322 and 0.8631 and 0.9203 and 0.6445 and 0.8644 and 1.073 and 1.152 and 1.1772
Body weight (Fig. 7b) (DU145 xenograft; [4]): 26.2 and 24.5 and 25.9 and 25.8 (2×) and 25.3 and 24.9 and 25.4 and 26 and 26.8
Tumor volume (Fig. 7a) (DU145 xenograft; [4]): 0.957 and 0.8113 and 1.305 and 0.8461 and 0.9452 and 0.6025 and 0.7668 and 1.032 and 1.21 and 1.322
Body weight (Fig. 7b) (DU145 xenograft; [5]): 26.4 and 24.6 and 26.1 and 25.8 and 25.6 (2×) and 25.2 and 26.3 and 26 and 26.5
Tumor volume (Fig. 7a) (DU145 xenograft; [5]): 1.01 and 0.8586 and 1.367 and 0.9073 and 0.9955 and 0.6291 and 0.7765 and 1.063 and 1.256 and 1.304
Body weight (Fig. 7b) (DU145 xenograft; [6]): 26.7 and 25 and 26.3 (2×) and 25.9 (2×) and 25.4 and 26.5 and 25.7 and 26.6
Tumor volume (Fig. 7a) (DU145 xenograft; [6]): 1.081 and 0.9018 and 1.428 and 0.9736 and 1.066 and 0.6924 and 0.8141 and 1.105 and 1.304 and 1.393
Body weight (Fig. 7b) (DU145 xenograft; [7]): 26.9 (2×) and 25.2 and 26.7 and 26.2 and 26.3 and 25.7 and 26.8 and 25.9 and 26.5
Tumor volume (Fig. 7a) (DU145 xenograft; [7]): 1.137 and 0.9183 and 1.533 and 1.03 and 1.104 and 0.7734 and 0.8511 and 1.184 and 1.29 and 1.475
Tumor volume (Fig. 7a) (DU145 xenograft; YK-2-69 (100 mg/kg), Day 47, individual mice, 100 mg/kg): 1.209 and 0.991 and 1.624 and 1.045 and 1.005 and 0.829 and 0.881 and 1.225 and 1.336 and 1.553
Body weight (Fig. 7b) (DU145 xenograft; YK-2-69 (100 mg/kg), Day 47, individual mice, 100 mg/kg, in g (unit assumed)): 27.2 and 25.5 and 26.9 and 26.3 and 26.6 and 25.8 and 27.1 and 26 and 26.8 and 27.4
Body weight (Fig. 7b) (DU145 xenograft; [8]): 27.5 and 25.8 and 27.1 (3×) and 26.6 and 26.9 and 26.1 and 27.3 and 26.2
Tumor volume (Fig. 7a) (DU145 xenograft; [8]): 1.289 and 1.004 and 1.711 and 1.157 and 1.055 and 0.8821 and 0.8937 and 1.296 and 1.303 and 1.663
Body weight (Fig. 7b) (DU145 xenograft; [9]): 19.6 and 20.5 and 20.2 (2×) and 19.9 and 20.3 and 20.7 and 21.4 and 21 and 20
Tumor volume (Fig. 7a) (DU145 xenograft; [9]): 0.07862 and 0.07877 and 0.07202 and 0.06915 and 0.0797 and 0.06867 and 0.07232 and 0.09045 and 0.0645 and 0.09096
Tumor volume (Fig. 7a) (DU145 xenograft; YK-2-69 (200 mg/kg), Day 3, individual mice, 200 mg/kg): 0.1045 and 0.1116 and 0.1049 and 0.08973 and 0.1165 and 0.1011 and 0.1007 and 0.1453 and 0.08834 and 0.1272
Body weight (Fig. 7b) (DU145 xenograft; YK-2-69 (200 mg/kg), Day 3, individual mice, 200 mg/kg, in g (unit assumed)): 19.9 and 20.6 and 20.5 and 20.2 and 20.7 and 21.5 and 21.3 and 20.3 and 20.1
Body weight (Fig. 7b) (DU145 xenograft; YK-2-69 (200 mg/kg), Day 3, individual mice, in g (unit assumed)): 21
Body weight (Fig. 7b) (DU145 xenograft; [10]): 20.2 and 20.9 and 20.8 and 20.4 and 21.1 (2×) and 21.8 and 21.6 and 20.3 and 20.5
Tumor volume (Fig. 7a) (DU145 xenograft; [10]): 0.1323 and 0.1488 and 0.1486 and 0.1179 and 0.1568 and 0.1343 and 0.1497 and 0.2074 and 0.1183 and 0.1702
Cell migration (cell number) (PC-3 cells; 1 µM): 189 cell number and 176 cell number and 199 cell number
Cell migration (cell number) (PC-3 cells; 2 µM): 110 cell number and 105 cell number and 98 cell number
Cell migration (cell number) (PC-3 cells; 4 µM): 69 cell number and 65 cell number and 74 cell number
migration (in words) (PC-3 cells; PC-3 cells, dose-dependent): remarkably inhibited the migration and invasion
Cell migration (cell number) (DU145 cells; DU145, 2 μM): 3879 cell number and 3920 cell number and 3723 cell number
Cell migration (cell number) (DU145 cells; DU145, 4 μM): 2567 cell number and 2678 cell number and 2788 cell number
Cell migration (cell number) (DU145 cells; DU145, 8 μM): 1578 cell number and 1677 cell number and 1723 cell number
migration (in words) (DU145 cells; DU145 cells, dose-dependent): remarkably inhibited the migration and invasion
Cell migration (cell number) (22Rv1 cells [1]; 22Rv1, 0.5 μM): 1803 cell number and 1758 cell number and 1920 cell number
Cell migration (cell number) (22Rv1 cells [1]; 22Rv1, 1 μM): 710 cell number and 690 cell number and 736 cell number
Cell migration (cell number) (22Rv1 cells [1]; 22Rv1, 2 μM): 422 cell number and 380 cell number and 416 cell number
migration (in words) (22Rv1 cells [1]; 22Rv1 cells, dose-dependent): remarkably inhibited the migration and invasion
Relative proliferation rate (%) mean (22Rv1 cells [2]; 0.0049 uM): 8.6252%
Relative proliferation rate (%) (22Rv1 cells [2]; 0.0049 uM): 6.856% and 10.4024% and 8.617%
optical density (22Rv1 cells [2]; 0.0049 uM): 0.951 and 0.913 and 0.912
Relative proliferation rate (%) mean (22Rv1 cells [2]; 0.078 uM): 28.6346%
Relative proliferation rate (%) (22Rv1 cells [2]; 0.078 uM): 32.9089% and 24.3376% and 28.6573%
optical density (22Rv1 cells [2]; 0.078 uM): 0.685 and 0.771 and 0.712
Relative proliferation rate (%) mean (22Rv1 cells [2]; 0.3125 uM): 33.639%
Relative proliferation rate (%) (22Rv1 cells [2]; 0.3125 uM): 36.3369% and 30.9127% and 33.6673%
optical density (22Rv1 cells [2]; 0.3125 uM): 0.65 and 0.704 and 0.662
Relative proliferation rate (%) mean (22Rv1 cells [2]; 1.25 uM): 55.2648%
Relative proliferation rate (%) (22Rv1 cells [2]; 1.25 uM): 58.57% and 51.9136% and 55.3106%
